Series [1] concerns Candida albicans. In words: Antifungal activity against Candida albicans after 24 hrs by microbroth dilution method. In kind it is functional.
Series [2] relates to Cryptococcus neoformans. In words: Antifungal activity against Cryptococcus neoformans NR-41292 after 24 hrs by microbroth dilution method. The series is classed as functional. As to conditions: NR-41292, 24 h. In general terms: Dilution methods test growth across graded concentrations, often in twofold steps.
The test system of series [3] is Candida albicans. In words: Antifungal activity against Candida albicans NR-29435 after 24 hrs by microbroth dilution method. In kind it is functional. The settings on record: NR-29435, 24 h.
The test system of series [4] is Candida albicans. Briefly: Antifungal activity against Candida albicans NR-29434 after 24 hrs by microbroth dilution method. The series is classed as functional. The settings on record: NR-29434, 24 h.
Series [5] deals with Cryptococcus neoformans. Briefly: Antifungal activity against Cryptococcus neoformans NR-41291 after 24 hrs by microbroth dilution method. In kind it is functional. As to conditions: NR-41291, 24 h.
For series [6], the system named is Candida albicans. In words: Antifungal activity against Candida albicans NR-29437 after 24 hrs by microbroth dilution method. The series is classed as functional. As to conditions: NR-29437, 24 h.
In series [7] the test system is Candida albicans. In words: Antibiofilm activity against 48 hrs old pre-formed biofilms of Candida albicans ATCC 10231 at 32 ug/ml after 24 hrs by MTS assay relative to control. In kind it is functional.
Series [8] relates to Cryptococcus neoformans. In words: Antifungal activity against Cryptococcus neoformans NR-41296 after 24 hrs by microbroth dilution method. The series is classed as functional. As to conditions: NR-41296, 24 h.
Series [9] relates to Candida albicans. Briefly: Antifungal activity against Candida albicans NR-29442 after 24 hrs by microbroth dilution method. As to conditions: NR-29442, 24 h. The series is classed as functional.
For series [10], the system named is Candida albicans. Briefly: Antifungal activity against Candida albicans […] after 24 hrs by microbroth dilution method. The series is classed as functional.
Series [11] has as its system Candida albicans. In words: Antifungal activity against Candida albicans NR-29449 after 24 hrs by microbroth dilution method. The series is classed as functional. The settings on record: NR-29449, 24 h.
Series [12] deals with Candida albicans. In words: Antifungal activity against Candida albicans NR-29448 after 24 hrs by microbroth dilution method. The series is classed as functional. The settings on record: NR-29448, 24 h.
For series [13], the system named is Nakaseomyces glabratus. In words: Antifungal activity against Candida glabrata ATCC 90030 after 24 hrs by microbroth dilution method. In kind it is functional. The settings on record: ATCC 90030, 24 h.
The subject of series [14] is HCT-116. In words: Cytotoxicity against human HCT116 cells assessed as reduction in cell viability up to 4 ug/ml after 24 hrs by MTS assay. The series is classed as cell-based. The settings on record: hct-116, 24 h. Background: Tetrazolium assays rely on reduction of a dye to a coloured formazan, in cell work by metabolically active cells.
Series [15] relates to Candida albicans. In words: Antifungal activity against Candida albicans ATCC 10231 after 24 hrs by microbroth dilution method. In kind it is functional. The settings on record: ATCC 10231, 24 h.
Series [16] has as its system Candida albicans. Briefly: Antifungal activity against Candida albicans NR-29439 after 24 hrs by microbroth dilution method. In kind it is functional. As to conditions: NR-29439, 24 h.
For series [17], the system named is Cryptococcus neoformans. In words: Antifungal activity against Cryptococcus neoformans NR-41295 after 24 hrs by microbroth dilution method. The series is classed as functional. The settings on record: NR-41295, 24 h.
The subject of series [18] is Candida albicans. Briefly: Antifungal activity against Candida albicans NR-29366 after 24 hrs by microbroth dilution method. In kind it is functional. As to conditions: NR-29366, 24 h.
Series [19] has as its system Candida albicans. Briefly: Antifungal activity against Candida albicans NR-29440 after 24 hrs by microbroth dilution method. In kind it is functional. The settings on record: NR-29440, 24 h.
Series [20] relates to Candida albicans. In words: Antifungal activity against Candida albicans NR-29446 after 24 hrs by microbroth dilution method. As to conditions: NR-29446, 24 h. In kind it is functional.
Series [21] has as its system Cryptococcus neoformans. Briefly: Antifungal activity against Cryptococcus neoformans NR-41294 after 24 hrs by microbroth dilution method. In kind it is functional. The settings on record: NR-41294, 24 h.
The test system of series [22] is Cryptococcus neoformans. In words: Antifungal activity against Cryptococcus neoformans NR-41299 after 24 hrs by microbroth dilution method. The series is classed as functional. As to conditions: NR-41299, 24 h.
Series [23] deals with Cryptococcus neoformans. In words: Antifungal activity against Cryptococcus neoformans NR-41298 after 24 hrs by microbroth dilution method. In kind it is functional. As to conditions: NR-41298, 24 h.
The subject of series [24] is Candida albicans. In words: Antifungal activity against Candida albicans NR-29444 after 24 hrs by microbroth dilution method. The series is classed as functional. The settings on record: NR-29444, 24 h.
Series [25] relates to Candida albicans. Briefly: Antibiofilm activity against 48 hrs old pre-formed biofilms of Candida albicans ATCC 10231 at 16 ug/ml after 24 hrs by MTS assay relative to control. The series is classed as functional.
Series [26] concerns Candida albicans. In words: Antifungal activity against Candida albicans NR-29438 after 24 hrs by microbroth dilution method. The series is classed as functional. The settings on record: NR-29438, 24 h.
Series [27] concerns Candida parapsilosis. Briefly: Antifungal activity against Candida parapsilosis ATCC 22019 after 24 hrs by microbroth dilution method. The series is classed as functional. The settings on record: Lodderomyces parapsilosis, ATCC 22019, 24 h.
The subject of series [28] is Candida albicans. In words: Antibiofilm activity against 48 hrs old pre-formed biofilms of Candida albicans ATCC 10231 at 128 ug/ml after 24 hrs by MTS assay relative to control. The series is classed as functional.
Series [29] deals with Candida albicans. In words: Antifungal activity against Candida albicans NR-29441 after 24 hrs by microbroth dilution method. The series is classed as functional. The settings on record: NR-29441, 24 h.
Series [30] deals with Candida albicans. Briefly: Antifungal activity against Candida albicans NR-29367 after 24 hrs by microbroth dilution method. The series is classed as functional. The settings on record: NR-29367, 24 h.
In series [31] the test system is Cryptococcus neoformans. Briefly: Antifungal activity against Cryptococcus neoformans NR-41297 after 24 hrs by microbroth dilution method. As to conditions: NR-41297, 24 h. The series is classed as functional.
In series [32] the test system is HCT-116. Briefly: Cytotoxicity against human HCT116 cells assessed as reduction in cell viability at 32 to 128 ug/ml after 24 hrs by MTS assay. The series is classed as cell-based. As to conditions: hct-116, 24 h.

Experimental findings from ChEMBL document CHEMBL4422645, “Benzimidazole tethered pyrrolo[3,4-b]quinoline with broad-spectrum activity against fungal pathogens” (Bioorg Med Chem Lett, 2019) are described below.

As usually defined, the MIC is the lowest concentration that inhibits growth of the organism. A higher MIC goes with weaker potency.

Converted amounts (≈) assume the structure as drawn. Where only a bound is given, the exact number is not on record here.

The compound `Cc1ccc2cc3c(nc2c1)-c1nc2ccccc2n1C3` yielded a minimal inhibitory concentration (MIC) in [1] of 32 µg/mL (≈ 118 µM).
The same measure, in the same setting: with `COc1ccc2nc3c(cc2c1)Cn1c-3nc2ccccc21` the figure was 16 µg/mL (≈ 55.7 µM).
Regarding `Brc1cccc2cc3c(nc12)-c1nc2ccccc2n1C3`, the minimal inhibitory concentration (MIC) in [1] is above 64 µg/mL.
Take `c1ccc2nc3c(cc2c1)Cn1c-3nc2ccccc21`: the MIC in series [2] was 0.5 µg/mL (≈ 1.94 µM); in series [3] it was 0.5 µg/mL (≈ 1.94 µM); in series [4], 0.25 µg/mL (≈ 0.972 µM); in [5], 1 µg/mL (≈ 3.89 µM); in series [6] it was 0.0625 µg/mL (≈ 0.243 µM); in series [8] it was 1 µg/mL (≈ 3.89 µM). In addition, the MIC in series [9] was 0.5 µg/mL (≈ 1.94 µM); in series [10] it was 0.0625 µg/mL (≈ 0.243 µM); in [11], 0.0625 µg/mL (≈ 0.243 µM); in series [12], 0.25 µg/mL (≈ 0.972 µM); in series [13], 1 µg/mL (≈ 3.89 µM); in [15], 0.5 µg/mL (≈ 1.94 µM). Moreover, the minimal inhibitory concentration (MIC) came out at 0.5 µg/mL (≈ 1.94 µM) in series [16]; 0.5 µg/mL (≈ 1.94 µM) in series [1]; 2 µg/mL (≈ 7.77 µM) in series [17]; 0.5 µg/mL (≈ 1.94 µM) in series [18]; 0.5 µg/mL (≈ 1.94 µM) in series [19]; 0.5 µg/mL (≈ 1.94 µM) in [20]. Further, the MIC is 1 µg/mL (≈ 3.89 µM) in [21]; 2 µg/mL (≈ 7.77 µM) in [22]; 2 µg/mL (≈ 7.77 µM) in series [23]; 0.25 µg/mL (≈ 0.972 µM) in [24]; 0.25 µg/mL (≈ 0.972 µM) in series [26]; 1 µg/mL (≈ 3.89 µM) in series [27]. Besides, the MIC in series [29], in series [30] and in series [31] was 0.5 µg/mL (≈ 1.94 µM) in each case. The Activity in series [7] is reported as 40%; in [14], “Non-Toxic”; in [25], 25%; in series [28], 60%; in series [32], 25%.
In series [1], `Clc1cccc2cc3c(nc12)-c1nc2ccccc2n1C3` yielded a minimal inhibitory concentration (MIC) of 64 µg/mL (≈ 219 µM).
Take `COc1ccc2cc3c(nc2c1)-c1nc2ccccc2n1C3`: the MIC in series [1] is above 64 µg/mL.
In series [1], `Cc1ccc2nc3c(cc2c1)Cn1c-3nc2ccccc21` had an MIC of 32 µg/mL (≈ 118 µM).
For the compound `OC(Cn1cncn1)(Cn1cncn1)c1ccc(F)cc1F` [FLUCONAZOLE], the MIC in [2] was 1 µg/mL (≈ 3.27 µM); in series [3] it was 0.25 µg/mL (≈ 0.816 µM); in series [4], 0.5 µg/mL (≈ 1.63 µM); in [5], 1 µg/mL (≈ 3.27 µM); in [6], 2 µg/mL (≈ 6.53 µM); in [8], 1 µg/mL (≈ 3.27 µM). For the same compound, the minimum inhibitory concentration (MIC) was 16 µg/mL (≈ 52.2 µM) in [9]; 2 µg/mL (≈ 6.53 µM) in [10]; 0.5 µg/mL (≈ 1.63 µM) in [11]; above 64 µg/mL in [12]; 1 µg/mL (≈ 3.27 µM) in series [13]; 1 µg/mL (≈ 3.27 µM) in series [15]. Moreover, the minimal inhibitory concentration (MIC) in [16] was above 64 µg/mL; in series [17], 2 µg/mL (≈ 6.53 µM); in series [18] it was above 64 µg/mL; in series [19], 2 µg/mL (≈ 6.53 µM); in [20] it was above 64 µg/mL; in series [21] it was 2 µg/mL (≈ 6.53 µM). The MIC in series [22] was determined as 2 µg/mL (≈ 6.53 µM); in series [23], 4 µg/mL (≈ 13.1 µM); in series [24], 2 µg/mL (≈ 6.53 µM); in series [26], 0.5 µg/mL (≈ 1.63 µM); in series [27], 0.25 µg/mL (≈ 0.816 µM); in series [29] it was 4 µg/mL (≈ 13.1 µM). For the same compound, the values for the minimal inhibitory concentration (MIC) in [30] and in series [31] were above 64 µg/mL and 0.5 µg/mL (≈ 1.63 µM), respectively. The values for the Activity in series [25] and in series [28] were 25% and 40%, respectively.
In turn, `Cc1cccc2cc3c(nc12)-c1nc2ccccc2n1C3` registered a minimum inhibitory concentration (MIC) in series [1] of 16 µg/mL (≈ 59 µM).
On the same count and under the same terms, to `COc1cccc2cc3c(nc12)-c1nc2ccccc2n1C3` belongs 64 µg/mL (≈ 223 µM).
